Results: article PMC10584170, “Machine learning-based phenotypic imaging to characterise the targetable biology of Plasmodium falciparum male gametocytes for the development of transmission-blocking antimalarials” (PLOS Pathogens, 2023)
Read-outs that look alike come from different tables or passages of the source.

Legend:
HepG2 cells = assay: HepG2 cytotoxicity counter-screen; settings: cytotoxic activity against HepG2 cells
[1] = tested on: P. falciparum female gametocytes; assay: P. falciparum Dual Gamete Formation Assay (PfDGFA), female readout (Pfs25-positive female gametes); assay type: cell-based, Plasmodium falciparum NF54; settings: for Selectivity ratio F: HepG2 Tox50 versus female IC50; for IC50: PfDGFA, 24 h incubation with gametocytes before induction, female gamete readout, read-out: Female IC50; for HitlevelF: number of replicates with >50% inhibition in the female readout
In short: (§1)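 Mature NF54 gametocytes (day 14) were incubated with compound for 24 h at 37°C under 1% O2/3% CO2, then triggered with xanthurenic acid ookinete medium plus Cy3-anti-Pfs25. Exflagellation was imaged by brightfield; after a further 24 h at 28°C, Pfs25-positive female gametes were imaged by fluorescence and counted by automated image analysis.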

[2] = tested on: P. falciparum male gametocytes; assay: P. falciparum Dual Gamete Formation Assay (PfDGFA), male readout (exflagellation); assay type: cell-based, Plasmodium falciparum NF54; settings: for Selectivity Ratio M: HepG2 Tox50 versus male IC50; for IC50: PfDGFA, 24 h incubation with gametocytes before induction, exflagellation readout, read-out: Male IC50; for HitlevelM: number of replicates with >50% inhibition in the male readout
In short: as §1

[3] = 2µM, 24h preincubation with gametocytes, average of replicates
[4] = 2µM, 24h preincubation with gametocytes, replicate R1
[5] = 2µM, 24h preincubation with gametocytes, replicate R3
[6] = 2µM, 24h preincubation with gametocytes, replicate R4
[7] = PfDGFA at 2µM, 24h preincubation with gametocytes, average of replicates
[8] = PfDGFA at 2µM, 24h preincubation with gametocytes, replicate R1
[9] = PfDGFA at 2µM, 24h preincubation with gametocytes, replicate R3
[10] = PfDGFA at 2µM, 24h preincubation with gametocytes, replicate R4
[11] = 2µM, 24h preincubation with gametocytes prior to induction of gametogenesis, average of replicates
[12] = 2µM, 24h preincubation with gametocytes prior to induction of gametogenesis, replicate R1
[13] = 2µM, 24h preincubation with gametocytes prior to induction of gametogenesis, replicate R3
[14] = 2µM, 24h preincubation with gametocytes prior to induction of gametogenesis, replicate R4
[15] = Plasmodium falciparum, 2µM, 24h preincubation with gametocytes, average of replicates, read-out: Average inhibition female (%)
[16] = Plasmodium falciparum, 2µM, 24h preincubation with gametocytes, replicate R1, read-out: % inhibition female (individual replicates) R1
[17] = Plasmodium falciparum, 2µM, 24h preincubation with gametocytes, replicate R2, read-out: % inhibition female (individual replicates) R2
[18] = Plasmodium falciparum, 2µM, 24h preincubation with gametocytes, replicate R3, read-out: % inhibition female (individual replicates) R3
[19] = Plasmodium falciparum, 2µM, 24h preincubation with gametocytes, replicate R4, read-out: % inhibition female (individual replicates) R4
[20] = Plasmodium falciparum, 2µM, 24h preincubation with gametocytes, average of replicates, read-out: Average inhibition male (%)
[21] = Plasmodium falciparum, 2µM, 24h preincubation with gametocytes, replicate R1, read-out: % inhibition male (individual replicates) R1
[22] = Plasmodium falciparum, 2µM, 24h preincubation with gametocytes, replicate R2, read-out: % inhibition male (individual replicates) R2
[23] = Plasmodium falciparum, 2µM, 24h preincubation with gametocytes, replicate R3, read-out: % inhibition male (individual replicates) R3
[24] = Plasmodium falciparum, 2µM, 24h preincubation with gametocytes, replicate R4, read-out: % inhibition male (individual replicates) R4

| SMILES | IC50 [1] | IC50 [2] | Tox50 (HepG2 cells) | Average inhibition female (%) [1, 3] | % inhibition female (individual replicates) R1 [1, 4] | % inhibition female (individual replicates) R3 [1, 5] | % inhibition female (individual replicates) R4 [1, 6] | Selectivity ratio F [1] | Average inhibition male (%) [2, 3] | Selectivity Ratio M [2] | Average inhibition female (%) [1, 7] | % inhibition female (individual replicates) R1 [1, 8] | % inhibition female (individual replicates) R3 [1, 9] | % inhibition female (individual replicates) R4 [1, 10] | HitlevelF ([1]; 2µM) | Average inhibition male (%) [2, 7] | % inhibition male (individual replicates) R1 [2, 8] | % inhibition male (individual replicates) R3 [2, 9] | % inhibition male (individual replicates) R4 [2, 10] | HitlevelM ([2]; 2µM) | further results |
| --- | --- | --- | --- | --- | --- | --- | --- | --- | --- | --- | --- | --- | --- | --- | --- | --- | --- | --- | --- | --- | --- |
| COc1ccc(CCNCCCCNCCc2ccc(OC)c3ccccc23)c2ccccc12.CS(=O)(=O)O [TCMDC-137961] | 2.02 µM | 1.14 µM | 3.73 µM | 83.6% | 91.7% | 93.4% | 91.7% | 1.85 | 90.0% | 3.28 |  |  |  |  |  |  |  |  |  |  | % inhibition male (individual replicates) R1 [2, 4]: 98.7%; % inhibition male (individual replicates) R3 [2, 5]: 95.1%; % inhibition male (individual replicates) R4 [2, 6]: 92.4% |
| CC(C)Oc1ccc2ccccc2c1CNCCCCCCNCc1c(OC(C)C)ccc2ccccc12.CS(=O)(=O)O [TCMDC-137965] | 2.56 µM | 1.69 µM | 3.22 µM |  |  |  |  | 1.26 |  | 1.91 | 48.8% | 46.4% | 51.5% | 48.5% | 1 | 73.8% | 86.0% | 74.0% | 91.3% | 3 |  |
| CCCOc1ccc2ccccc2c1CNCCCCCCNCc1c(OCCC)ccc2ccccc12.CS(=O)(=O)O [TCMDC-137966] | 2.86 µM | 1.94 µM | 3.43 µM |  |  |  |  | 1.2 |  | 1.77 | 25.2% | 28.6% | 7.7% | 20.1% | 0 | 79.0% | 79.2% | 56.4% | 86.2% | 4 |  |
| COc1ccccc1-c1nc2c(ccc3nc(N)nc(N)c32)[nH]1 [TCMDC-137976] | 3.03 µM | 1.72 µM | 2.07 µM |  |  |  |  | 0.68 |  | 1.2 | 41.0% | 50.1% | 49.2% | 39.4% | 1 | 63.5% | 72.4% | 76.7% | 81.8% | 3 |  |
| CCOCn1c(-c2ccccc2)cc2c3c(N)nc(N)nc3ccc21 [TCMDC-137979] | 1 µM | 1.66 µM | 1.17 µM |  |  |  |  | 1.17 |  | 0.71 |  |  |  |  |  |  |  |  |  |  | Average inhibition female (%) [1, 11]: 82.0%; % inhibition female (individual replicates) R1 [1, 12]: 76.5%; % inhibition female (individual replicates) R3 [1, 13]: 82.3%; % inhibition female (individual replicates) R4 [1, 14]: 83.9%; HitlevelF ([1]; 2µM, 24h preincubation): 4; Average inhibition male (%) [2, 11]: 42.1%; % inhibition male (individual replicates) R1 [2, 12]: 55.5%; % inhibition male (individual replicates) R3 [2, 13]: 46.9%; % inhibition male (individual replicates) R4 [2, 14]: 49.0%; HitlevelM ([2]; 2µM, 24h preincubation): 1 |
| CCOc1cc(OCC)c2ccccc2c1CNCCCCCCNCc1c(OCC)cc(OCC)c2ccccc12.CS(=O)(=O)O [TCMDC-137982] | 1.7 µM | 1.06 µM | 2.84 µM | 82.9% | 76.1% | 92.8% | 83.8% | 1.67 | 97.2% | 2.69 |  |  |  |  |  |  |  |  |  |  | % inhibition male (individual replicates) R1 [2, 4]: 95.9%; % inhibition male (individual replicates) R3 [2, 5]: 96.2%; % inhibition male (individual replicates) R4 [2, 6]: 100.2% |
| CC(C)(C)c1ccc(-c2nc3c(ccc4nc(N)nc(N)c43)[nH]2)cc1.Cl [TCMDC-137984] |  |  | 3.25 µM |  |  |  |  | 3.35 |  | 17.94 |  |  |  |  |  |  |  |  |  |  | inhibition at 2 µM [1, 15]: 42.3%; inhibition at 2 µM [1, 16]: 35.1%; inhibition at 2 µM [1, 17]: 50%; inhibition at 2 µM [1, 18]: 42.4%; inhibition at 2 µM [1, 19]: 41.7%; IC50 ([1]; Plasmodium falciparum): 0.97 µM; inhibition at 2 µM [2, 20]: 99.4%; inhibition at 2 µM [2, 21]: 99.9%; inhibition at 2 µM [2, 22]: 99.6%; inhibition at 2 µM [2, 23]: 98%; inhibition at 2 µM [2, 24]: 100%; IC50 ([2]; Plasmodium falciparum): 0.18 µM |
| Cc1ccc(S(=O)(=O)N(CCCNCc2cccc(O)c2)c2ccccc2)cc1 [TCMDC-138022] |  |  | 31.57 µM |  |  |  |  | 4.12 |  | 100.82 |  |  |  |  |  |  |  |  |  |  | inhibition at 2 µM [1, 15]: 63.8%; inhibition at 2 µM [1, 16]: 52.6%; inhibition at 2 µM [1, 17]: 60%; inhibition at 2 µM [1, 18]: 91.9%; inhibition at 2 µM [1, 19]: 50.6%; IC50 ([1]; Plasmodium falciparum): 7.66 µM; inhibition at 2 µM [2, 20]: 98.1%; inhibition at 2 µM [2, 21]: 102%; inhibition at 2 µM [2, 22]: 101%; inhibition at 2 µM [2, 23]: 97.3%; inhibition at 2 µM [2, 24]: 91.8%; IC50 ([2]; Plasmodium falciparum): 0.31 µM |

Second part, led by results:

| IC50 [1] | IC50 [2] | SMILES | Tox50 (HepG2 cells) | Average inhibition female (%) [1, 3] | % inhibition female (individual replicates) R1 [1, 4] | % inhibition female (individual replicates) R3 [1, 5] | % inhibition female (individual replicates) R4 [1, 6] | Selectivity ratio F [1] | Average inhibition male (%) [2, 3] | Selectivity Ratio M [2] | Average inhibition female (%) [1, 7] | % inhibition female (individual replicates) R1 [1, 8] | % inhibition female (individual replicates) R3 [1, 9] | % inhibition female (individual replicates) R4 [1, 10] | HitlevelF ([1]; 2µM) | Average inhibition male (%) [2, 7] | % inhibition male (individual replicates) R1 [2, 8] | % inhibition male (individual replicates) R3 [2, 9] | % inhibition male (individual replicates) R4 [2, 10] | HitlevelM ([2]; 2µM) | further results |
| --- | --- | --- | --- | --- | --- | --- | --- | --- | --- | --- | --- | --- | --- | --- | --- | --- | --- | --- | --- | --- | --- |
| 3.3 µM | 1.88 µM | Cn1c(-c2ccccc2)cc2c3c(N)nc(N)nc3ccc21 [TCMDC-137985] | 4.6 µM |  |  |  |  | 1.39 |  | 2.45 | 1.3% | 15.4% | -11.7% | 3.6% | 0 | 67.4% | 74.3% | 56.6% | 64.0% | 4 |  |
| 1.91 µM | 1.76 µM | CCCCCCCCN1CCN(CCCCCCNc2c3ccccc3nc3ccccc23)CC1.Cl [TCMDC-138015] | 4.12 µM |  |  |  |  | 2.15 |  | 2.34 | 83.0% | 79.8% | 90.0% | 82.3% | 4 | 63.5% | 58.8% | 66.4% | 81.8% | 3 |  |
| 3.07 µM | 0.42 µM | CCN(CC)CC(O)CNc1c2ccc([N+](=O)[O-])cc2nc2cc(OC)c(OC)cc12.Cl (stereo not drawn) [TCMDC-138079] | 2.63 µM | 25.5% | 28.2% | 21.9% | 25.2% | 0.86 | 95.0% | 6.3 |  |  |  |  |  |  |  |  |  |  | % inhibition male (individual replicates) R1 [2, 4]: 93.0%; % inhibition male (individual replicates) R4 [2, 6]: 92.3% |
| 1.56 µM | 0.68 µM | CCOC(=O)c1cc2c(CCN3C(=O)c4ccccc4C3=O)cn(C)c2cc1-c1ccncc1 [TCMDC-138099] | 1.57 µM | 93.8% | 94.3% | 100.9% | 92.0% | 1 | 101.6% | 2.3 |  |  |  |  |  |  |  |  |  |  | % inhibition male (individual replicates) R1 [2, 4]: 102.0%; % inhibition male (individual replicates) R3 [2, 5]: 99.5%; % inhibition male (individual replicates) R4 [2, 6]: 102.4% |
